Laboratory results taken from patent publication US20220112225A1, “ANANDAMIDE COMPOUNDS” (priority 2019, published 2022).

How the values were obtained:
[1] = PO JVC rat PK study at 10 mg/kg; type: in vivo; conditions: male Sprague Dawley rats
Description: Compound 3 was orally dosed at 10 mg/kg to a group of 3 individually housed male Sprague Dawley rats that were fasted overnight and fed 4 h post-dose, the rats were fitted with JVCs. Dosing was performed with 5 mL/kg dosing volumes with 5% DMSO 95% water used as a dosing vehicle. Serial blood (150 μL) samples were taken from each animal at each timepoint (0.25 h, 0.5 h, 1 h, 2 h, 4 h, 6 h, 8 h, and 24 h) into heparinised Eppendorf tubes (containing 5 μL heparin) on ice containing an equal quantity of water. Two 100 μL aliquots were then placed in duplicate 96 well plates on dry ice. Samples were stored in the freezer at −20° C. until bioanalysis.
Samples were defrosted and acetonitrile (containing internal standard) was used to precipitate the proteins. All the samples were mixed, centrifuged and the supernatants analysed by LC-MS-MS according to the following procedures: • 1. 20 μL plasma was transferred to a v-bottom 96-well plate. • 2. 80 μL acetonitrile (ACN) containing IS was added to each well. • 3. The plate was sealed and gently mixed for approximately 30 s. • 4. Plates were centrifuged for 10 min at 3500 rpm. • 5. 50 μL supernatant was transferred to a fresh v-bottom 96-well plate containing 100 μL MilliQ water.
Plates were thermo-sealed and stored at 4° C. until analysis. The resulting PK parameters are shown below in Table 1.

hMfsd2a = molecular target: T1, hMfsd2a (Homo sapiens, UniProt Q8NA29); experiment: In vitro Mfsd2a transport, UPLC-MS-MS analysis; type: cell-based; conditions: transfected HEK293 cells, 50 μM test compound, 1 hour
T1 construct: expressed in transfected cells; host or cells: HEK293
T1 sequence (Q8NA29 1-530 isoform Q8NA29-2): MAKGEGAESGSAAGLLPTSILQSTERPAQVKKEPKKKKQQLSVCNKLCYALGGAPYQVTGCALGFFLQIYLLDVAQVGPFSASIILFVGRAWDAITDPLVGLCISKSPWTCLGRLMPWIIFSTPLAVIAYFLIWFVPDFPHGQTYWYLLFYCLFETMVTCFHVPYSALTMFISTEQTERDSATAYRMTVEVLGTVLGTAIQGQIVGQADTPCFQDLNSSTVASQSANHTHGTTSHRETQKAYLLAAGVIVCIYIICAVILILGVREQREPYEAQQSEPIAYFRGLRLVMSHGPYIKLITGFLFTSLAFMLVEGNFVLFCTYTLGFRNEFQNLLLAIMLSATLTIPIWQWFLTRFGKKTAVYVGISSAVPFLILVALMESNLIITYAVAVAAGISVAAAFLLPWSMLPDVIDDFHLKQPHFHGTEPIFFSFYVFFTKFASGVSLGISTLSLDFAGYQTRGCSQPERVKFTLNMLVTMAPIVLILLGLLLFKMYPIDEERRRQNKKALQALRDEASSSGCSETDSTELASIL
Description: The assay was conducted in a low throughput 6-well format with HEK293 cells prepared and then transfected in duplicate wells with plasmids containing either the wildtype (WT) version of hMfsd2a, the D97A mutant version, or an empty vector as control. Uptake into the ceils was assessed by both thin-layer chromatography (TLC) and ultrahigh performance liquid chromatography hyphenated mass spectrometry.
HEK293 cells were seeded at 6.25×10^5 per 6-well in 2 mL of DMEM with 10% FBS and 1% penicillin-streptomycin (P/S) media (Sigma) and incubated overnight at 37° C. in 5% CO2. Cells were checked for confluency the next morning. On a per well basis the following lipid mix was generated, 6 μL of Lipofectamine 2000 was added dropwise to 200 μL of OptiMEM, this was left to stand for 5 minutes at room temperature (RT). 1 μg of hMfsd2a WT, D97A or empty plasmid was prepared in 200 μL of OptiMEM as appropriate for each well; the Lipofectamine 2000 in OptiMEM solution was then added dropwise to a total volume of 400 μL (this can be scaled to support the number of wells/plates to be assayed). This transfection preparation was then incubated at RT for 20 minutes. DMEM with 10% FBS and no P/S media was warmed to 37° C., the HEK293 plate media was changed and the cells washed carefully with 1 mL of the warmed DMEM with 10% FBS no P/S media, 1.6 mL of the warmed DMEM with 10% FBS no P/S media was then added to each well. 400 μL of the transfection preparation was then added dropwise to each well as appropriate and the plate was gently swirled in a circular motion. The plate was then incubated overnight at 37° C. in 5% CO2.
Compound Incubation and Preparation of Analysis Samples Compound stock solutions were prepared in a 12% BSA in PBS solution such that a 40 μL spike into 2 ml, of plain DMEM would yield a concentration of 50 μM of test compound (the compound treated media). Remaining compound stock solution in 12% BSA in PBS was frozen at −20° C. to allow for media stability testing. The HEK293 6-well plate was removed from the incubator and the wells gently rinsed with 1 mL of plain DMEM that had been prewarmed to 37° C. 2 mL of the compound treated media was then added to each well. A 100 μL sample of the compound treated media was sampled to represent a T=0 h sample; 5 μL of this sample (the remainder was reserved and frozen in case of re-analysis being required) was diluted with 45 μL of DMEM and crashed with 50 μL MeCN in a 96-well plate which was sealed and kept on ice. The HEK293 6-well plate was then incubated at 37° C. in 5% CO2 for 1 hour, the plate was then removed from the incubator and a 100 μL sample of media taken from each well to represent a T=1 h sample; 5 μL of this sample (the remainder was reserved and frozen in case of re-analysis being required) was diluted with 45 μL of DMEM and crashed with 50 μL MeCN into the 96-well plate which was re-sealed and stored at −20° C. The remaining media was then removed from the HEK293 6-well plate, the wells were gently rinsed twice with 1 mL of 0.5% BSA in DMEM, the media was then removed and the 6-well plate allowed to dry completely at RT. 1 ml of 3:2 Hexane:Isopropanol (HIP) was added to each well in a fume cupboard and the plate allowed to stand for 30 minutes at RT without shaking. The HIP solution was then transferred to 2 mL Eppendorf tubes, and the process was repeated with a second 1 mL aliquot of HIP and the two aliquots combined. The HIP samples were then dried down under a nitrogen stream.
HIP samples prepared as described above were reconstituted in 100 μL of MeCN, vortex mixed and inverted multiple times to ensure all surfaces of the Eppendorf tube were rinsed with the MeCN and finally pulse centrifuged. […]

Substance: 2-(5Z,8Z,11Z,14Z)-icosa-5,8,11,14-tetraenamidoethyl (trimethylammonio) ethylphosphate [Compound 3]
- AUC0-inf ([1]; 10 mg/kg PO): 2426.6 ng·h/mL
- AUC0-t ([1]; 10 mg/kg PO): 2348.5 ng·h/mL
- Cmax ([1]; 10 mg/kg PO): 372 ng/mL
- Tmax ([1]; 10 mg/kg PO): 2.5 h
- Bioavailability ([1]; 10 mg/kg PO vs 3 mg/kg IV): 28 % F
- Transport via Mfsd2a: concentration in HIP samples from WT cells compared with D97A mutant Mfsd2a and/or empty vector cells (hMfsd2a): transported via Mfsd2a
